Data as given in patent US20260345582A1, “PRODRUG FOR ANTI-AGING RELATED DISEASES AND USE METHOD THEREOF” (Beijing SunCell Bio-Medical Co., Ltd., priority 2022, published 2026).

What was measured:
[1] = tested on: non-senescent HEF cells; assay: cell killing activity assay, non-senescent HEF cells (Example 7); assay type: cell-based, human; details: highest concentration (25 μM)
Procedure: (§1) Induction of the Cellular Senescence
(§2) Cell Killing Activity Assay
(§3) Preparation of the cell plates: The non-senescent, and the induced senescent HEF cells and A549 cells were taken respectively, digested with trypsin, and centrifuged at 1000 rmp for 5 minutes. The supernatants were removed, and the cells were resuspended in fresh DMEM medium containing 10% foetal bovine serum for counting. The cell density was adjusted so that the density of the non-senescent cells was at 4000 cells/100 μL and the density of the senescent cells was at 7000 cells/100 μL. The cell suspension was added to the 96-well transparent cell culture plates at 100 μL per well. […]
(§4) Formulation of the drug concentration gradients: After the cells adhered to the wall on the second day, the small molecule compounds (d-12, d-11, and d-4) to be tested for activity are ready to be added. […]
(§5) Detection of the cell survival after the drug treatment using the CCK-8 method: Three days after the addition of the drug, the well plate was removed, the supernatant was discarded, and 100 μL of the pre-prepared CCK-8 working solution was added to each well. […] The plate was taken out to determine the absorbance value (OD value) of each well at the wavelength of 450 nm. The cell viability in each experimental group was calculated. […]

[2] = tested on: non-senescent A549 cells; assay: cell killing activity assay, non-senescent A549 cells (Example 7); assay type: cell-based, human; details: non-senescent A549, highest concentration (25 μM)
Procedure: as §1, §2, §3, §4, §5

[3] = tested on: senescent A549 cells; assay: cell killing activity assay, senescent A549 cells (Example 7); assay type: cell-based, human; details: for selective killing of the senescent cells: A549-induced senescence model, three days, CCK-8, FIG. 7
Procedure: as §1, §2
Preparation of the cell plates: The non-senescent, and the induced senescent HEF cells and A549 cells were taken respectively, digested with trypsin, and centrifuged at 1000 rmp for 5 minutes. The supernatants were removed, and the cells were resuspended in fresh DMEM medium containing 10% foetal bovine serum for counting. The cell density was adjusted so that the density of the non-senescent cells was at 4000 cells/100 μL and the density of the senescent cells was at 7000 cells/100 μL. The cell suspension was added to the 96-well transparent cell culture plates at 100 μL per well. Note that the edge wells of the 96-well plate were not used for the test wells, and 300 μL PBS is added separately to reduce the medium evaporation. The cell-spread 96-well plates were put back into the incubator at 37 °C for the overnight incubation until the cells adhered to the wall.
Formulation of the drug concentration gradients: After the cells adhered to the wall on the second day, the small molecule compounds (d-12, d-11, and d-4) to be tested for activity are ready to be added. […] 3 parallel replicate wells were set up for each test drug concentration. The 96-well plate was put back into the incubator at 37 °C, and the cell survival was tested after three days.
Detection of the cell survival after the drug treatment using the CCK-8 method: Three days after the addition of the drug, the well plate was removed, the supernatant was discarded, and 100 μL of the pre-prepared CCK-8 working solution was added to each well. The CCK-8 working solution was obtained by diluting the CCK8 stock solution (C0041, Beyotime) with the serum-free DMEM medium in 10-fold volume. The 96-well plate added with the CCK-8 working solution was put back to the incubator at 37 °C and incubated for 0.5-2 hours. The plate was taken out to determine the absorbance value (OD value) of each well at the wavelength of 450 nm. The cell viability in each experimental group was calculated. […]

[4] = tested on: senescent HEF cells; assay: cell killing activity assay, senescent HEF cells (Example 7); assay type: cell-based, human; details: HEF-induced senescence model, three days, CCK-8, FIG. 7
Procedure: as §1, §2, §3, §4, §5

[5] = tested on: A549 cells (human non-small cell lung cancer cell), induced senescent with Cisplatin; assay: in vitro killing of induced senescent A549 cells (CCK-8); assay type: cell-based; details: induced senescent A549 cell model, FIG. 1A
Source text: A. The killing results of some selected compounds in the in vitro compound library screening on the induced senescent A549 cell model. Wherein, MZ-1, dBET6, ARV-825, I-BET726, I-BET151, and INCB057643 are all BET inhibitors; A1331852 and A1155463 are novel Bcl-xL inhibitors; Dasatinib, Quercetin, Fisetin, Curcumin are the familiar active drugs or natural products.
B. Comparison of the killing effects of three Bcl-xL inhibitors on the induced senescent A549 cell model. A549 represents the normal uninduced A549 cell group; and A549-CDDP represents the senescent A549 cell group induced with Cisplatin (CDDP) in vitro.
as §1

[6] = liver microsomal metabolic stability, monkey; details: Fu and RB assumed to be 1
Procedure: (§6) Hepatic Microsomal Metabolic Stability
(§7) A13bGa1 was co-incubated with the mouse, rat, canine, monkey and human […] and the incubation medium at a final drug concentration of 1 μM in the incubation system for 60 minutes. Samples were taken and analyzed at time points 0, 15, 30, 45 and 60 minutes during the incubation. The reaction was terminated by adding an amount of acetonitrile solution containing the internal standard. […] The residual percentage, half-life, intrinsic clearance, amplified clearance, hepatic clearance and hepatic extraction ratio were determined. The entire experiment was performed in triplicate. All data calculations were performed by Microsoft Excel software. Peak areas were detected by extracting the ionic spectrum. The in vitro half-life (t1/2) of the parent compound was detected by fitting the natural logarithm of the percentage elimination of the parent compound linearly to time.
(§8) The in vitro intrinsic clearance (in μL/min/mg protein) was calculated using the following equation: in vitro CLint=kV/N
(§9) The amplified clearance (in mL/min/kg) was calculated using the following equation: Amplified CLint=kV/N×the amplification factor
(§10) The hepatic clearance (in mL/min/kg) was calculated using the following equation: The predicted hepatic CLH=(Q×Fu/RB×the amplified CLint)/(Q+Fu/RB×the amplified CLint) • V=the incubation volume per well (0.2 mL); • N=the total amount of protein (mg) • Q=the hepatic blood flow (mL/min/kg) • Fu=the plasma free rate (assumed to be 1) • RB=the whole blood partition coefficient (assumed to be 1)
(§11) The hepatic uptake rate was calculated using the following equation:
(§12) The hepatic extraction ratio (ER)=(the predicted hepatic CLH)/Q

[7] = liver microsomal metabolic stability, human; details: Fu and RB assumed to be 1
Procedure: as §6, §7, §8, §9, §10, §11, §12

[8] = liver microsomal metabolic stability, rat; details: Fu and RB assumed to be 1
Procedure: as §6, §7, §8, §9, §10, §11, §12

[9] = liver microsomal metabolic stability, canine; details: canine; Fu and RB assumed to be 1
Procedure: as §6, §7, §8, §9, §10, §11, §12

[10] = liver microsomal metabolic stability, mouse; details: Fu and RB assumed to be 1
Procedure: as §6, §7, §8, §9, §10, §11, §12

[11] = tested on: senescent cells (A549 and HEF); assay: cell killing activity assay, senescent A549 and HEF cell models (Example 7); assay type: cell-based, human; details: FIG. 7
Procedure: as §1, §2, §3, §4, §5

## CC(=O)OC[C@H]1O[C@@H](Oc2ccc(C(Cc3cn(CCCN4CCOCC4)nn3)OC(=O)c3nc(N4CCc5cccc(C(=O)Nc6nc7ccccc7s6)c5C4)ccc3-c3cnn(CC45CC6CC(CC(C6)C4)C5)c3C)cc2[N+](=O)[O-])[C@H](OC(C)=O)[C@@H](OC(C)=O)[C@H]1OC(C)=O (stereo partly drawn) [d-11]
[1]
  killing of the non-senescent cells: none of the three molecules killed the non-senescent cells
[2]
  killing of the non-senescent cells: none of the three molecules killed the non-senescent cells
[3]
  selective killing of the senescent cells: selective killing of the senescent cells
[4]
  selective killing of the senescent cells: selective killing of the senescent cells

## Cc1sc2c(c1C)C(c1ccc(Cl)cc1)=N[C@@H](CC(=O)Nc1ccc(OCCOCCOCCOCCNc3cccc4c3C(=O)N(C3CCC(=O)NC3=O)C4=O)cc1)c1nnc(C)n1-2 (stereo partly shown) [ARV825]
[5]
  senescent cell killing activity and selectivity, compound screening: better in vitro killing activity

## O=c1ccc2ccc(O)cc2o1 [7-hydroxycoumarin, reference compound]
[6]
  The predicted intrinsic hepatic clearance Clint: 42.08 mL/min/kg
[7]
  The predicted intrinsic hepatic clearance Clint: 20.16 mL/min/kg
[8]
  The predicted intrinsic hepatic clearance Clint: 52.33 mL/min/kg
[9]
  The predicted intrinsic hepatic clearance Clint: 30.44 mL/min/kg
[10]
  The predicted intrinsic hepatic clearance Clint: 87.82 mL/min/kg

## CN(C)CC#Cc1ccc(OCCCc2sc(N3CCc4cccc(C(=O)Nc5nc6ccccc6s5)c4C3)nc2C(=O)O)c(F)c1 [Compound A1155463]
[5]
  senescent cell killing activity and selectivity, compound screening: good senescent cell killing activity and selectivity in vitro

## Cc1sc2c(c1C)C(c1ccc(Cl)cc1)=N[C@@H](CC(=O)NCCCCCCCCNC(=O)COc1cccc3c1C(=O)N(C1CCC(=O)NC1=O)C3=O)c1nnc(C)n1-2 (stereo partly shown) [dBET6]
[5]
  senescent cell killing activity and selectivity, compound screening: better in vitro killing activity

## Cc1ncsc1-c1ccc(CNC(=O)[C@@H]2C[C@@H](O)CN2C(=O)[C@@H](NC(=O)COCCOCCOCCNC(=O)C[C@@H]2N=C(c3ccc(Cl)cc3)c3c(sc(C)c3C)-n3c(C)nnc32)C(C)(C)C)cc1 [MZ1]
[5]
  senescent cell killing activity and selectivity, compound screening: better in vitro killing activity

## Cc1c(-c2ccc(N3CCc4cccc(C(=O)Nc5nc6ccccc6s5)c4C3)nc2C(=O)OC(Cc2cn(CCCN3CCOCC3)nn2)c2ccc(O[C@@H]3O[C@H](CO)[C@H](O)[C@H](O)[C@H]3O)c([N+](=O)[O-])c2)cnn1CC12CC3CC(CC(C3)C1)C2 (stereo partly drawn) [d-12]
[1]
  killing of the non-senescent cells: none of the three molecules killed the non-senescent cells
[11]
  relative activity in killing the senescent cells among the three molecules: relatively more active in killing the senescent cells
[2]
  killing of the non-senescent cells: none of the three molecules killed the non-senescent cells
[3]
  selective killing of the senescent cells: selective killing of the senescent cells
[3]; Homo sapiens, 72 h, Cisplatin-induced senescent A549, three days, CCK-8
  IC50: ~6.9 µM
[4]
  selective killing of the senescent cells: selective killing of the senescent cells
